Test results taken from patent US9890133B2 (priority 2011, dated 2018).
Converted amounts (≈) assume the structure as drawn. Read-outs that look alike come from different tables or passages of the source.

Legend:
Rhino 41 = test: Multicycle CPE reduction assay, Rhino 41; format: cell-based; details: incubation at 37° C. in HeLa cells
Experimental: (§1) The test compounds were evaluated for anti-picornavirus activity by a multicycle cytopathic effect (CPE) reduction assay. The antiviral activity was initially determined using an MTS [3-(4,5-dimethylthiazol-2-yl)-5-(3-carboxymethoxyphenyl)-2-(4-sulfophenyl-2H-tetrazolium]-based CPE reduction assay.
(§2) In this regard, cells grown to confluence in 96-well plates were infected with 100 50% cell culture infective doses (CCID50) of virus. After an adsorption period of 2 hrs at 37° C., virus was removed and serial dilutions of the compounds were added. […] After removal of the medium, 90 μl of a culture medium and 10 μl of MTS-phenazine methosulfate (Promega, Leiden, The Netherlands) were added to each well. After an incubation period of 2 hrs at 37° C., the optical density (OD) of each well was read at 498 nm in a microplate reader.
(§3) CPE values for evaluating antiviral activity were calculated using the following Mathematic Formula 3: […]
(§4) The 50% effective concentration (EC50) and the 50% cytotoxic concentration (CC50) were defined as the concentrations of compound that offered 50% protection against virus-induced CPE and that killed cells by 50%, respectively, and were calculated using logarithmic interpolation.

[1] = Cytotoxicity (CC50), MTS-based assay (Experimental Example 2); format: cell-based
Experimental: as §1, §2
CPE values for evaluating cytotoxicity were calculated using the following Mathematic Formula 4: […]
as §4

Rhino 45 = test: Multicycle CPE reduction assay, Rhino 45; format: cell-based; details: incubation at 37° C. in HeLa cells
Experimental: as §1, §2, §3, §4

Rhino 85 = test: Multicycle CPE reduction assay, Rhino 85; format: cell-based; details: incubation at 37° C. in HeLa cells
Experimental: as §1, §2, §3, §4

Rhino 2 = test: Multicycle CPE reduction assay, Rhino 2; format: cell-based; details: incubation at 37° C. in HeLa cells
Experimental: as §1, §2, §3, §4

Rhino 15 = test: Multicycle CPE reduction assay, Rhino 15; format: cell-based; details: incubation at 37° C. in HeLa cells
Experimental: as §1, §2, §3, §4

Rhino 29 = test: Multicycle CPE reduction assay, Rhino 29; format: cell-based; details: incubation at 37° C. in HeLa cells
Experimental: as §1, §2, §3, §4

Entero 71 = test: Multicycle CPE reduction assay, Entero 71; format: cell-based; details: incubation at 37° C. in RD cells
Experimental: as §1, §2, §3, §4

in vitro = details: human
Rhino 9 = test: Multicycle CPE reduction assay, Rhino 9; format: cell-based; details: incubation at 37° C. in HeLa cells
Experimental: as §1, §2, §3, §4

Echo 11 = test: Multicycle CPE reduction assay, Echo 11; format: cell-based; details: BGM, read-out: Echo 11 EC50
Experimental: as §1, §2, §3, §4

Coxsackie A16 = test: Multicycle CPE reduction assay, Coxsackie A16; format: cell-based; details: MRC5; incubation at 37° C. in MRC-5 cells
Experimental: as §1, §2, §3, §4

Polio 2 = test: organism not typed; format: cell-based; details: BGM, read-out: Polio 2 EC50
Polio 3 = test: organism not typed; format: cell-based; details: BGM, read-out: Polio 3 EC50
Rhino 42 = test: Multicycle CPE reduction assay, Rhino 42; format: cell-based; details: incubation at 37° C. in HeLa cells
Experimental: as §1, §2, §3, §4

Coxsackie A21 = test: Multicycle CPE reduction assay, Coxsackie A21; format: cell-based; details: MRC5; incubation at 37° C. in MRC-5 cells
Experimental: as §1, §2, §3, §4

Rhino 63 = test: Multicycle CPE reduction assay, Rhino 63; format: cell-based; details: incubation at 37° C. in HeLa cells
Experimental: as §1, §2, §3, §4

Echo 9 = test: Multicycle CPE reduction assay, Echo 9; format: cell-based
Experimental: as §1, §2, §3, §4

Polio 1 = test: organism not typed; format: cell-based; details: BGM, read-out: Polio 1 EC50
Rhino 89 = test: Multicycle CPE reduction assay, Rhino 89; format: cell-based; details: HeLa, read-out: Rhino 89 EC50
Experimental: as §1, §2, §3, §4

Rhino 70 = test: Multicycle CPE reduction assay, Rhino 70; format: cell-based
Experimental: as §1, §2, §3, §4

Rhino 39 = test: Multicycle CPE reduction assay, Rhino 39; format: cell-based; details: incubation at 37° C. in HeLa cells
Experimental: as §1, §2, §3, §4

Rhino 86 = test: Multicycle CPE reduction assay, Rhino 86; format: cell-based; details: incubation at 37° C. in HeLa cells
Experimental: as §1, §2, §3, §4

Rhino 72 = test: Multicycle CPE reduction assay, Rhino 72; format: cell-based; details: incubation at 37° C. in HeLa cells
Experimental: as §1, §2, §3, §4

Poliovirus 3 = test: microbe, parasite or virus in culture; format: cell-based; details: Enterovirus C, read-out: Poliovirus3 EC50
Rhino 14 = test: Multicycle CPE reduction assay, Rhino 14; format: cell-based; details: incubation at 37° C. in HeLa cells
Experimental: as §1, §2, §3, §4

Coxsackie A9 = test: Multicycle CPE reduction assay, Coxsackie A9; format: cell-based; details: incubation at 37° C. in BGM cells
Experimental: as §1, §2, §3, §4

Row | Structure (SMILES) | EC50 (Rhino 41) | CC50 at 3 days [1] | EC50 (Rhino 45; HeLa) | EC50 (Rhino 85) | EC50 (Rhino 2) | EC50 (Rhino 15) | EC50 (Rhino 29) | EC50 (Entero 71) | CC50 (in vitro) | CC50 (in vitro; Picorana CC50) | EC50 (Rhino 9) | EC50 (Echo 11) | EC50 (Polio 2) | EC50 (Polio 3) | melting point | EC50 (Rhino 63) | EC50 (Polio 1) | EC50 (Rhino 89) | EC50 (Rhino 39) | other results
1 | CC(C)c1ccc2c(c1)OC1(O)c3ccccc3C(=O)C21O (stereo not shown) [Example 10, 4b,9b-Dihydroxy-7-isopropyl-4bH-benzo[d]indeno[1,2-b]furan-10(9bH)-one] | 8.8 ± 0.12 µM | > 100 µM | 3.4 ± 1.5 µM | > 50 µM | > 50 µM | > 50 µM | > 50 µM | 0.012 ± 0.002 µM | 18.4 µg/mL (≈ 62.2 µM) | 14.2 µg/mL (≈ 47.9 µM) | > 50 µM | 0.021 µM | 0.36 ± 0.15 µM | 1 ± 0.57 µM | 195 to 198 °C | > 50 µM | 0.75 ± 0.37 µM | > 50 µM | > 50 µM | EC50 (Coxsackie A16): 0.09 ± 0.035 µM; EC50 (Rhino 42): > 50 µM; EC50 (Coxsackie A21): 1.1 ± 0.58 µM; EC50 (Echo 9; MRC5, incubation at 37° C. in MRC-5 cells, read-out: Echo 9 EC50): 0.025 ± 0.0057 µM; EC50 (Rhino 70; HeLa, read-out: Rhino 70 EC50, incubation at 37° C. in HeLa cells): 2.4 ± 0.36 µM; EC50 (Rhino 86): 8 ± 2.9 µM; EC50 (Rhino 72): 5.3 ± 1.2 µM
2 | CC(C)c1ccc2c(c1)O[C@@]1(O)c3cccc(N)c3C(=O)[C@@]21O [Example 46, 1-Amino-4b,9b-dihydroxy-7-isopropyl-4bH-benzo[d]indeno[1,2-b]furan-10(9bH)-one] | 0.47 ± 0.036 µM | > 100 µM | ≤ 0.078 µM | 6.2 ± 0.7 µM | > 10 µM | 2.8 ± 0.26 µM | 4.6 ± 0.72 µM | 0.0031 µM | 18.3 µg/mL (≈ 58.9 µM) | 9.42 µg/mL (≈ 30.3 µM) | 3.5 ± 0.15 µM | 0.0023 ± 0.00088 µM | 0.018 ± 0.0019 µM | 0.043 ± 0.017 µM | 180 to 182 °C | 8.5 ± 0.13 µM | 0.068 µM | 0.34 ± 0.86 µM | 3 ± 0.17 µM | EC50 (Rhino 45; listed as Ex. 46): < 0.078 µM; EC50 (Poliovirus 3): < 0.01 µg/mL; EC50 (Rhino 14): < 0.01 µM; EC50 (Echo 9; MRC5, read-out: Echo 9 EC50): 0.0035 µM; EC50 (Coxsackie A9): 0.0017 µM; EC50 (Rhino 70; HeLa, incubation at 37° C. in HeLa cells, read-out: Rhino 70 EC50): ≤ 0.078 µM; EC50 (Rhino 70; read-out: Rhino 70 EC50, incubation at 37° C. in HeLa cells, listed as Ex. 46): > 0.078 µM
